Columns and labels:
[1] = system: Pyricularia oryzae Carvara KA301; format: in vivo; conditions: for C. V. (%) RCB: 50 ppm, control value, rice blast
Botrytis cinerae = assay: Fungicidal activity against cucumber gray mold rot (CGM) disease; format: in vivo; conditions: 50 ppm, control value
Phytophthora infestans = format: in vivo; conditions: 50 ppm; control value, tomato late blight
Puccinia recondita = assay: Fungicidal activity against wheat leaf rust (WLR) disease; format: in vivo; conditions: for C. V. (%), Fungicidal Activities against WLB at 10 ppm: Table 8 (Test Example 5); for C. V. (%) WLR: 50 ppm, control value, wheat leaf rust
Erysiphae graminis = assay: Fungicidal activity against barley powdery mildew (BPM) disease; format: in vivo; conditions: for C. V. (%), Fungicidal activities against TLB at 10 ppm: Table 9 (Test Example 6); for C. V. (%) BPM: 50 ppm, control value, barley powdery mildew
Rhizoctonia solani AG-1 = assay: Fungicidal activity against rice sheath blight (RSB) disease; conditions: 50 ppm, control value
[2] = 10 ppm, sprayed on Nakdong rice plant, control value from lesion area

SMILES	C. V. (%) Fungicidal Activities against RCB at 10 ppm [1, 2] [%]	C. V. (%) Fungicidal Activities against RCB at 10 ppm (TABLE 6) [1, 2] [%]	C. V. (%) RCB [1] [%]	C. V. (%) CGM (Botrytis cinerae) [%]	C. V. (%) TLB (Phytophthora infestans) [%]	C. V. (%), Fungicidal Activities against WLB at 10 ppm (Puccinia recondita) [%]	C. V. (%) WLR (Puccinia recondita) [%]	C. V. (%), Fungicidal activities against TLB at 10 ppm (Erysiphae graminis) [%]	C. V. (%) BPM (Erysiphae graminis) [%]	C. V. (%) RSB (Rhizoctonia solani AG-1) [%]
COC=C(C(=O)OC)c1ccccc1COc1cccc(OC(F)=C(c2cccc(Cl)c2)C(F)(F)F)c1 [Compound 84]	95	95	90	16	81	97	100	100	100	25
COC=C(C(=O)OC)c1ccccc1COc1cccc(OC(F)=C(c2ccc3c(c2)OCO3)C(F)(F)F)c1 [Compound 81]			86	0	33	100	100	100	100	65
CNC(=O)C(=COC)c1ccccc1COc1cccc(OC(F)=Cc2cccc(C)c2)c1 [Compound 7]			26	33	46		0		0	10
CNC(=O)C(=COC)c1ccccc1COc1cccc(OC(F)=Cc2ccc(Cl)cc2)c1 [Compound 38]			33	15	33		0		8	5
COC(=O)C(=CSC)c1ccccc1COc1cccc(OC(F)=Cc2cc(C)c(C)cc2C)c1 [Compound 24]			62	27	18		98		96	46
CO/C=C(/C(=O)OC)c1ccccc1COc1cccc(OC(F)=Cc2ccccc2)c1 [Compound 1, methyl (2E)-3-methoxy-2-{2′-{3″-(2′″-fluorostyryl)-2′″-oxy}phenoxymethyl}phenyl-2-propenoate]			97	62	70	96	100	100	100	95
COC(=O)C(=CSC)c1ccccc1COc1cccc(OC(F)=Cc2cccc(C)c2)c1 [Compound 9]			96	33	26		88		95	92
CO/C=C(/C(=O)OC)c1ccccc1COc1cccc(OC(F)=C(c2cc(C)cc(C)c2)C(F)(F)F)c1 [Compound 67]			80	16	25		100	100	100	50
COC(=O)C(=CSC)c1ccccc1COc1cccc(OC(F)=Cc2ccc(C)c(C)c2)c1 [Compound 16]			53	0	33		83		97	60
